Test results as given in patent US11084781B2, “Diarylureas as CB1 allosteric modulators” (Research Triangle Institute, priority 2017, dated 2021).

Biological target: T1, human CB1 receptor (Homo sapiens, UniProt P21554)
T1 construct: host or cells: CHO-RD-HGA16 cells (CHO cells overexpressing promiscuous Galpha16)
Experiment: CB1 calcium mobilization assay (antagonist mode, against EC80 of CP55,940)
Format: cell-based
Details: Table 1; against EC80 (100 nM) of CP55,940; mean ± S.E.M.; read-out: CB1 calcium assay IC50

T1 sequence (P21554 whole entry): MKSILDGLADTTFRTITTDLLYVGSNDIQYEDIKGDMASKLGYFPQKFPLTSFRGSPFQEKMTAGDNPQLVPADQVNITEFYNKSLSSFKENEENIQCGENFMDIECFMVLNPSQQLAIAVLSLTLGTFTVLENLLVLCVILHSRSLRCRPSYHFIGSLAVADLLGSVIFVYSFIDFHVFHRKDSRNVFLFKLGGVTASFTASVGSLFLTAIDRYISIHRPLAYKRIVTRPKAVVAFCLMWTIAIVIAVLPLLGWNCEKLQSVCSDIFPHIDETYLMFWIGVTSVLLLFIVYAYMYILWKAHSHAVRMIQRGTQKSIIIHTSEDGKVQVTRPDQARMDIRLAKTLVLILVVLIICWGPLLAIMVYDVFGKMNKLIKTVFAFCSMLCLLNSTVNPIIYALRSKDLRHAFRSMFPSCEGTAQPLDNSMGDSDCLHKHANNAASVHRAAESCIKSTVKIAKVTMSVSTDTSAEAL

Row | IC50 [nM] | SMILES
1 | > 10000 | O=C(Nc1ccc(Cl)cc1)Nc1cccc(CN2CCCC2)c1 [Compound 90, 3-(4-Chlorophenyl)-1-[3-(pyrrolidin-1-ylmethyl)phenyl]urea]
2 | 244 ± 45 | O=C(Nc1ccc(Cl)cc1)Nc1cccc(-c2cccnc2)c1 [Compound 19, 3-(4-Chlorophenyl)-1-[3-(pyridin-3-yl)phenyl]urea]
3 | 360 ± 64 | O=C(Nc1ccc(Cl)cc1)Nc1cccc(N2CCOCC2)c1 [Compound 77, 1-(4-Chlorophenyl)-3-[3-(morpholin-4-yl)phenyl]urea]
4 | 231 ± 14 | COc1cccc(-c2cccc(NC(=O)Nc3ccc(Cl)cc3)c2)n1 [Compound 15, 3-(4-Chlorophenyl)-1-[3-(6-methoxypyridin-2-yl)phenyl]urea]
5 | 290 ± 24 | O=C(Nc1ccc(Cl)cc1)Nc1cccc(-c2cncnc2)c1 [Compound 21, 3-(4-Chlorophenyl)-1-[3-(pyrimidin-5-yl)phenyl]urea]
6 | 174 ± 31 | O=C(Nc1ccc(Cl)cc1)Nc1cccc(N2CCCCC2)c1 [Compound 76, 3-(4-Chlorophenyl)-1-[3-(piperidin-1-yl)phenyl]urea]
7 | 95 ± 9 | O=C(Nc1ccc(Cl)cc1)Nc1cccc(-c2ccc(Cl)cc2)c1 [Compound 30, 3-(4-Chlorophenyl)-1-[3-(4-chlorophenyl)phenyl]urea]
8 | 520 ± 36 | COc1cccc(NC(=O)Nc2ccc(Cl)cc2)c1 [Compound 91, 3-(4-Chlorophenyl)-1-(3-methoxyphenyl)urea]
9 | 350 ± 37 | O=C(Nc1ccc(Cl)cc1)Nc1cccc(N2CCCCCC2)c1 [Compound 83, 1-[3-(Azepan-1-yl)phenyl]-3-(4-chlorophenyl)urea]
10 | 1260 ± 160 | O=C(Nc1ccc(Cl)cc1)Nc1cccc(-c2ccc3c(c2)Cc2ccccc2-3)c1 [Compound 45, 3-(4-Chlorophenyl)-1-[3-(9H-fluoren-2-yl)phenyl]urea]
11 | 1340 ± 370 | O=C(Nc1ccc(Cl)cc1)Nc1cccc(-c2ccc(-c3ccccc3)cc2)c1 [Compound 39, 3-(4-Chlorophenyl)-1-[3-(4-phenylphenyl)phenyl]urea]

Row | SMILES | IC50 [nM]
12 | O=C(Nc1ccc(Cl)cc1)Nc1cccc(N2CCC2)c1 [Compound 80, 3-[3-(Azetidin-1-yl)phenyl]-1-(4-chlorophenyl)urea] | 35 ± 5
13 | O=C(Nc1ccc(Cl)cc1)Nc1cccc(-c2ccoc2)c1 [Compound 46, 3-(4-Chlorophenyl)-1-[3-(furan-3-yl)phenyl]urea] | 41 ± 9

Same assay, conditions: Table 2; against EC80 (100 nM) of CP55,940; mean ± S.E.M.; read-out: CB1 calcium assay IC50

Row | IC50 [nM] | SMILES
14 | 66 ± 9 | O=C(Nc1ccc(Cl)cc1)Nc1ccc(-c2ccccc2)cc1 [Compound 59, 3-(4-Chlorophenyl)-1-(4-phenylphenyl)urea]

Biological target: T2, CB1 receptor (Mus musculus, UniProt P47746)
T2 construct: from tissue; host or cells: cerebellar membranes of adult male CD-1 mice
T2 sequence (P47746 whole entry): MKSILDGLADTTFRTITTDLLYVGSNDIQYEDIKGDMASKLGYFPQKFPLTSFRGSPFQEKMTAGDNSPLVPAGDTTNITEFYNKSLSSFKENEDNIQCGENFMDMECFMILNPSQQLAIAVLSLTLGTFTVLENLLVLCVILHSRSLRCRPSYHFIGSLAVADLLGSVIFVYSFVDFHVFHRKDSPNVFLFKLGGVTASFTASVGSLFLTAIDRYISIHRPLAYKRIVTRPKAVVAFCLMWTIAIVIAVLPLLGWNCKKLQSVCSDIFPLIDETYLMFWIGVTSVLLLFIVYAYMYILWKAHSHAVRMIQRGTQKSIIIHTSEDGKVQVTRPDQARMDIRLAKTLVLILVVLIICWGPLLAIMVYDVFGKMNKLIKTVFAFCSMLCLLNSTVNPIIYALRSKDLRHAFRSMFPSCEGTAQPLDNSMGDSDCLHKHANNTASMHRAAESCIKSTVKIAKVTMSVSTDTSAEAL
Experiment: [35S]GTP-γ-S binding assay in mouse cerebellar membranes, CP55,940-stimulated
Format: biochemical
Details: CP55,940 (100 nM) stimulation, mean (95% confidence interval)

Row | IC50 [nM] | SMILES
15 | 456 | Cc1cccc(-c2cccc(NC(=O)Nc3ccc(Cl)cc3)c2)c1 [Compound 27, 3-(4-Chlorophenyl)-1-[3-(3-methylphenyl)phenyl]urea]
16 | 1890 | O=C(Nc1ccc(Cl)cc1)Nc1cccc(-c2ccc3ccccc3n2)c1 [Compound 43, 3-(4-Chlorophenyl)-1-[3-(quinolin-2-yl)phenyl]urea]
17 | 1520 | O=C(Nc1ccc(Cl)cc1)Nc1cccc(-c2ccc3ccccc3c2)c1 [Compound 42, 3-(4-Chlorophenyl)-1-[3-(naphthalen-2-yl)phenyl]urea]

Row | SMILES | IC50 [nM]
18 | O=C(Nc1ccc(Cl)cc1)Nc1cccc(N2CCC2)c1 [Compound 80, 3-[3-(Azetidin-1-yl)phenyl]-1-(4-chlorophenyl)urea] | 1380
19 | O=C(Nc1ccc(Cl)cc1)Nc1cccc(-c2ccoc2)c1 [Compound 46, 3-(4-Chlorophenyl)-1-[3-(furan-3-yl)phenyl]urea] | 440

Biological target: T1, human CB1 receptor
Experiment: CB1 calcium mobilization assay, agonist screen
Format: cell-based
Details: Table 1; 10,000 nM final concentration; mean ± SD

Row | CB1 calcium assay Agonist screen (% CP55, 940 Emax) | SMILES
20 | 2.9 ± 0.1 % CP55, 940 Emax | Cc1ccnc(-c2cccc(NC(=O)Nc3ccc(Cl)cc3)c2)c1 [Compound 16, 3-(4-Chlorophenyl)-1-[3-(4-methylpyridin-2-yl)phenyl]urea]
21 | 4.5 ± 0.7 % CP55, 940 Emax | O=C(Nc1ccc(Cl)cc1)Nc1cccc(-c2ccc3ccccc3n2)c1 [Compound 43, 3-(4-Chlorophenyl)-1-[3-(quinolin-2-yl)phenyl]urea]
22 | 27.5 ± 4.5 % CP55, 940 Emax | O=C(Nc1ccc(Cl)cc1)Nc1cccc(CN2CCCC2)c1 [Compound 90, 3-(4-Chlorophenyl)-1-[3-(pyrrolidin-1-ylmethyl)phenyl]urea]
23 | 34.2 ± 9.3 % CP55, 940 Emax | O=C(Nc1ccc(Cl)cc1)Nc1cccc(-c2cccnc2)c1 [Compound 19, 3-(4-Chlorophenyl)-1-[3-(pyridin-3-yl)phenyl]urea]
24 | 12.4 ± 1.8 % CP55, 940 Emax | O=C(Nc1ccc(Cl)cc1)Nc1cccc(N2CCOCC2)c1 [Compound 77, 1-(4-Chlorophenyl)-3-[3-(morpholin-4-yl)phenyl]urea]
25 | 2.4 ± 0.2 % CP55, 940 Emax | COc1cccc(-c2cccc(NC(=O)Nc3ccc(Cl)cc3)c2)n1 [Compound 15, 3-(4-Chlorophenyl)-1-[3-(6-methoxypyridin-2-yl)phenyl]urea]
26 | 2.5 ± 6.2 % CP55, 940 Emax | O=C(Nc1ccc(Cl)cc1)Nc1cccc(-c2cncnc2)c1 [Compound 21, 3-(4-Chlorophenyl)-1-[3-(pyrimidin-5-yl)phenyl]urea]
27 | 1.1 ± 0 % CP55, 940 Emax | O=C(Nc1ccc(Cl)cc1)Nc1cccc(N2CCCCC2)c1 [Compound 76, 3-(4-Chlorophenyl)-1-[3-(piperidin-1-yl)phenyl]urea]
28 | 12.9 ± 1.7 % CP55, 940 Emax | O=C(Nc1ccc(Cl)cc1)Nc1cccc(-c2ccc(C(=O)c3ccccc3)cc2)c1 [Compound 40, 3-(4-Chlorophenyl)-1-[3-(4-benzoylphenyl)phenyl]urea]
29 | 6.9 ± 0.5 % CP55, 940 Emax | O=C(Nc1ccc(Cl)cc1)Nc1cccc(-c2ccc3ccccc3c2)c1 [Compound 42, 3-(4-Chlorophenyl)-1-[3-(naphthalen-2-yl)phenyl]urea]
30 | 21.3 ± 3.7 % CP55, 940 Emax | O=C(Nc1ccc(Cl)cc1)Nc1cccc(-c2ccc(Cl)cc2)c1 [Compound 30, 3-(4-Chlorophenyl)-1-[3-(4-chlorophenyl)phenyl]urea]
31 | 13.6 ± 2.4 % CP55, 940 Emax | COc1cccc(NC(=O)Nc2ccc(Cl)cc2)c1 [Compound 91, 3-(4-Chlorophenyl)-1-(3-methoxyphenyl)urea]
32 | 18.6 ± 1.1 % CP55, 940 Emax | O=C(Nc1ccc(Cl)cc1)Nc1cccc(N2CCCCCC2)c1 [Compound 83, 1-[3-(Azepan-1-yl)phenyl]-3-(4-chlorophenyl)urea]
33 | −0.1 ± 0.1 % CP55, 940 Emax | O=C(Nc1ccc(Cl)cc1)Nc1cccc(-c2ccc3c(c2)Cc2ccccc2-3)c1 [Compound 45, 3-(4-Chlorophenyl)-1-[3-(9H-fluoren-2-yl)phenyl]urea]
34 | −0.7 ± 2.4 % CP55, 940 Emax | O=C(Nc1ccc(Cl)cc1)Nc1cccc(-c2ccc(-c3ccccc3)cc2)c1 [Compound 39, 3-(4-Chlorophenyl)-1-[3-(4-phenylphenyl)phenyl]urea]

Same assay, conditions: Table 2; 10,000 nM final concentration; mean ± SD

Row | CB1 calcium assay Agonist screen (% CP55, 940 Emax) | SMILES
35 | 21 ± 4 % CP55, 940 Emax | O=C(Nc1ccc(Cl)cc1)Nc1ccc(-c2ccccc2)cc1 [Compound 59, 3-(4-Chlorophenyl)-1-(4-phenylphenyl)urea]
